Results as given in patent US10703775B2, “Method of purifying antifungal compounds and exopolysaccharides from a microbial cell culture” (Bayer CropScience LP, priority 2016, dated 2020).

Test system: fungal pathogen
Experiment: Control treatments with processing aids alone on young plants inoculated with fungal pathogen
Assay type: in vivo
Details: applied alone at final rates similar to those in the pellet fractions; compared with UTC plants
Source text: GEROPON® (SDOS) and C12EO25 were also each applied to young plants at final rates similar to those in the pellet fractions. The young plants were later inoculated with fungal pathogen and the each plant was scored for percent control of the pathogen relative to the UTC plants.

Substance: polyoxyethylene (25) dodecyl ether [C12EO25]
- inherent antifungal activity: no inherent antifungal activity
